From ChEMBL document CHEMBL1201862, “PubChem BioAssay data set” (2004)
Activity calls are given as the source filed them.

Key:
[1] = target: T1, Corticotropin-releasing factor receptor 2/Corticotropin-releasing factor-binding protein (Homo sapiens, UniProt P24387+Q13324); assay: activators of CRF receptor 2 with binding protein – uHTS hits, confirmation (AID 602473); assay type: functional; details: read-out: EC50_Mean
T1 sequence (Q13324 whole entry): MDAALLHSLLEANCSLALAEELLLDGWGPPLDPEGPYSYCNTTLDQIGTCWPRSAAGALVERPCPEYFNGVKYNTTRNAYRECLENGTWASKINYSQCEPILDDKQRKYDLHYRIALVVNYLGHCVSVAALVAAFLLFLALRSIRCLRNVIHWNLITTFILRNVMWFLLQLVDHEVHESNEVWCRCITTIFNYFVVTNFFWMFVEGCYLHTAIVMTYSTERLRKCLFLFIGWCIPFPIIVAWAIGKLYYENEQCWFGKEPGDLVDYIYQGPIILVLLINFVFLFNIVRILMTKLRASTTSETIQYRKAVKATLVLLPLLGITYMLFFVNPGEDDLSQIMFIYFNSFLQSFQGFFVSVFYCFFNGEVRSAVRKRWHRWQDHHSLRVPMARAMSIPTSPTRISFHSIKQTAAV
T1 sequence (P24387 whole entry): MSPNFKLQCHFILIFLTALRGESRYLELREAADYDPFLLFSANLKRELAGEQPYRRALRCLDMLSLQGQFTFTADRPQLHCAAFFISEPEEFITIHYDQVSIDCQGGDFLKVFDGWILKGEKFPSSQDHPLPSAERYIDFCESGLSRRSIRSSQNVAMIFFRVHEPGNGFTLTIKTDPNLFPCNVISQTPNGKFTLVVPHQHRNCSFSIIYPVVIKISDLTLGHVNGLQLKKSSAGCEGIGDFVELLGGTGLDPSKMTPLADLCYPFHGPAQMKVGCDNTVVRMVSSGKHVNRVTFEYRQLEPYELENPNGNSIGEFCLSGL

[2] = target: T1, Corticotropin-releasing factor receptor 2/Corticotropin-releasing factor-binding protein; assay: Dose Response confirmation of uHTS hits for small molecule antagonists of the CRF-binding protein and CRF-R2 receptor complex.; assay type: functional; details: read-out: IC50_Mean
[3] = blockers of CRF-binding protein–CRF-R2 complex – cell-based, uHTS hits, 384-well, dose response (AID 651639); assay type: functional, Homo sapiens; details: read-out: IC50_Mean
[4] = viability loss in HEK293 cells – cell-based, plate reader, cherry-picked samples, cytotoxicity control, dose response (AID 743446); assay type: functional
[5] = blockers of bursicon-stimulated LGR2 cAMP reporter – cell-based, HEK293, CRE-luciferase reporter, cherry pick, set 2, dose response (AID 743343); assay type: functional;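 note: transfected cells were stimulated with diluted bursicon conditioned medium after compound addition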
[6] = A549 cell cytotoxicity, dose response, cytotoxicity control, plate reader, cherry-pick, antagonist series (AID 743412); assay type: functional, cell-based
[7] = toxicity toward HepG2 liver cells – cell-based, plate reader, cherry-pick, antagonist series, cytotoxicity control, dose response (AID 743416); assay type: functional
[8] = target: T2, Nuclear receptor subfamily 0 group B member 1 (Homo sapiens, UniProt P51843); assay type: functional, cell-based;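 note: HEK293T cells transfected with SF-1 and DAX-1 plus StAR promoter luciferase reporter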
T2 sequence (P51843 whole entry): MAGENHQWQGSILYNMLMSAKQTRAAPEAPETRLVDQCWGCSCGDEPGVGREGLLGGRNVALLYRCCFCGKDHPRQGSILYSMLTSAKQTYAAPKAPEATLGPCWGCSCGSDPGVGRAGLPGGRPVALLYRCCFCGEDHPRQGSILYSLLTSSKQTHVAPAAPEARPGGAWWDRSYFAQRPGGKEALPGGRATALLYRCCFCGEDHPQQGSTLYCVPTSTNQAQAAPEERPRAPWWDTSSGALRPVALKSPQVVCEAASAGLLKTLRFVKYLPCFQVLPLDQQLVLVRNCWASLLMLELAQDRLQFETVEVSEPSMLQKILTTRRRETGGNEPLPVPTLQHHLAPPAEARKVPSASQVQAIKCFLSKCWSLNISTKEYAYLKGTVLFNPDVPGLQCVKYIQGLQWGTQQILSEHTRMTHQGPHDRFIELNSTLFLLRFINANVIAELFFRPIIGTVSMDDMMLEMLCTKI

cells = assay type: functional, cell-based
[9] = target: T3, Low molecular weight phosphotyrosine protein phosphatase (Homo sapiens, UniProt P24666); assay type: functional; details: read-out: IC50_Mean
T3 sequence (P24666 whole entry): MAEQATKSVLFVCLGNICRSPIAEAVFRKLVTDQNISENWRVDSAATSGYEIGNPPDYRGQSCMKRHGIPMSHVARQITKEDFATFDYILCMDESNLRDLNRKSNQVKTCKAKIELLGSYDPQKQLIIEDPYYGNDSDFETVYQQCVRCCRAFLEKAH

[10] = target: T3, Low molecular weight phosphotyrosine protein phosphatase; assay type: functional; details: read-out: IC50_Mean; remark: listed apart in the source
[11] = target: Induced myeloid leukemia cell differentiation protein Mcl-1 (Homo sapiens, UniProt Q07820); assay type: functional
[12] = target: Long-chain-fatty-acid--AMP ligase FadD28 (Mycobacterium tuberculosis, UniProt P9WQ59); assay: Fluorescence polarization aasay to screen for inhibitors that compete for the binding of FadD28 to a bisubstrate Measured in Biochemical System Using Plate Reader - 2147-01_Inhibitor_Dose_CherryPick_Activity.; assay type: functional, Mycobacterium tuberculosis H37Rv
Long-chain-fatty-acid--AMP ligase FadD28, sequence (P9WQ59 whole entry): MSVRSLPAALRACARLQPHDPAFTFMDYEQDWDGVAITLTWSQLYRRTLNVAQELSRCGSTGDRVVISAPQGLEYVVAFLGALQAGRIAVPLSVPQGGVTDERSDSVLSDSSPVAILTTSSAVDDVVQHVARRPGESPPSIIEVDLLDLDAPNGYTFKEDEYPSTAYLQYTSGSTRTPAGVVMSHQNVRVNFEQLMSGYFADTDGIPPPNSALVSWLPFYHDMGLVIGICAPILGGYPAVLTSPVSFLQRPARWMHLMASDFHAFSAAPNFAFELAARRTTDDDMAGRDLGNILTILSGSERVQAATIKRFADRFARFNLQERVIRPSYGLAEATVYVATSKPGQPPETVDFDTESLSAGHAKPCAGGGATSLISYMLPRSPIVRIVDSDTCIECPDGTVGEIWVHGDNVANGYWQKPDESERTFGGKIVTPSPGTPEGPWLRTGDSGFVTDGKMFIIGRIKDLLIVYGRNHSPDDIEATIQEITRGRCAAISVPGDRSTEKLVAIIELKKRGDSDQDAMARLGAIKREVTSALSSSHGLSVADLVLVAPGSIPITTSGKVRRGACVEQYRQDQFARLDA

[13] = target: DNA dC->dU-editing enzyme APOBEC-3G (Homo sapiens, UniProt Q9HC16); assay type: functional;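 note: Dose-response counterscreen measuring inhibition of APOBEC3G DNA deaminase activity, run while confirming APOBEC3A inhibitors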
DNA dC->dU-editing enzyme APOBEC-3G, sequence (Q9HC16 whole entry): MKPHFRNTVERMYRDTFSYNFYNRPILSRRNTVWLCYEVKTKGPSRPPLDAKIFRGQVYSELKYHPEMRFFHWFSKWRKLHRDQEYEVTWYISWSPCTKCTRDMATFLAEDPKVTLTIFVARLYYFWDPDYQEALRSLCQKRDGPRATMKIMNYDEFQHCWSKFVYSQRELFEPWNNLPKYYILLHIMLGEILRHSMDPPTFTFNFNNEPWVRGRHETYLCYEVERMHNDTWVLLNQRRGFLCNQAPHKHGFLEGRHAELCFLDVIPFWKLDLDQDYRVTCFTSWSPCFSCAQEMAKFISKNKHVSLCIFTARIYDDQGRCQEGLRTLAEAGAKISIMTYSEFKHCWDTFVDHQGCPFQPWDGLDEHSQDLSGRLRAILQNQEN

[14] = target: T4, Small ubiquitin-related modifier 1 (Homo sapiens, UniProt P63165); assay: SUMO1 protein interaction blockers, potency – biochemical, fluorescence polarization, uHTS hits, dose response (AID 624382); assay type: functional; details: read-out: IC50_Mean
T4 sequence (P63165 whole entry): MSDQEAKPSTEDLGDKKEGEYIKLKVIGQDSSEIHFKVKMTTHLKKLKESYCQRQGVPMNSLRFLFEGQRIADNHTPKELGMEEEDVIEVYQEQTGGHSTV

[15] = target: DNA dC->dU-editing enzyme APOBEC-3A (Homo sapiens, UniProt P31941); assay: Dose Response confirmation of small molecule APOBEC3A DNA Deaminase Inhibitors via a fluorescence-based single-stranded DNA deaminase assay. [Related pubchem assays (depositor defined):AID493011, AID493024]; assay type: functional
DNA dC->dU-editing enzyme APOBEC-3A, sequence (P31941 whole entry): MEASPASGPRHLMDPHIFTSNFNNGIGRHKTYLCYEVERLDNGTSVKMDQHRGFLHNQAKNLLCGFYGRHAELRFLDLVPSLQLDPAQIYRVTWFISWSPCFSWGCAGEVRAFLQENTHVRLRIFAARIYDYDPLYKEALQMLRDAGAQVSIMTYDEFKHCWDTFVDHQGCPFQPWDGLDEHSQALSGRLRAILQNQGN

[16] = target: T4, Small ubiquitin-related modifier 1; assay: SUMO1 protein-protein binding blockers, potency – biochemical, FRET, dose response (AID 624383); assay type: functional; details: read-out: IC50_Mean
[17] = target: Photoreceptor-specific nuclear receptor (Homo sapiens, UniProt Q9Y5X4); assay type: functional, cell-based;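 note: CHO-S cells with Gal4-NCOR and VP16-NR2E3 two-hybrid luciferase reporter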
Protein skinhead-1 = target: T5, Protein skinhead-1 (Caenorhabditis elegans, UniProt P34707); assay type: functional
T5 sequence (P34707 whole entry): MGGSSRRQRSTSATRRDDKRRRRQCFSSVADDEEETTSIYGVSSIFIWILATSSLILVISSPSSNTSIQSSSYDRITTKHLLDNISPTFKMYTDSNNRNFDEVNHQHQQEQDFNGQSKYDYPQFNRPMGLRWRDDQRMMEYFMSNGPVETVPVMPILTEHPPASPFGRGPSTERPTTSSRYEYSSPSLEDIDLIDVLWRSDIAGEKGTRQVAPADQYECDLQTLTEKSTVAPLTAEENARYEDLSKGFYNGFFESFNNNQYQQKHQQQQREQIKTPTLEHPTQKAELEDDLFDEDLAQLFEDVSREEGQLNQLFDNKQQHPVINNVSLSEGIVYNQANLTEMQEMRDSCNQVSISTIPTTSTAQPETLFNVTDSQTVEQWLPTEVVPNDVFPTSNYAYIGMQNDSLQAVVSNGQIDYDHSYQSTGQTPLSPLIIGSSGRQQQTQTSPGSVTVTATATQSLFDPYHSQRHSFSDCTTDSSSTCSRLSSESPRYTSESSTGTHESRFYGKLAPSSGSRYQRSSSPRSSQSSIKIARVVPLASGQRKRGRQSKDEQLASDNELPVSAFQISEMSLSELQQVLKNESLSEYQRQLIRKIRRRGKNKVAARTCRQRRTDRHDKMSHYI

[18] = OVCAR-3 cell viability loss – plate reader, dry powder samples, PAX8 inhibitor project, dose response (AID 743044); assay type: functional, cell-based
[19] = OVCAR8 cell viability loss – plate reader, dry powder samples, PAX8 project, dose response (AID 743197); assay type: functional, cell-based; details: OVCAR-8
Paired box protein Pax-8 = Paired box protein Pax-8 (Homo sapiens, UniProt Q06710); assay: PAX8 transcriptional activity inhibition in RMG-I – RMG-I cells, luciferase, cherry-pick, dose response (AID 687027); assay type: functional, cell-based;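 note: luciferase reporter driven by Pax8 target thyroperoxidase promoter measured by SteadyGlo luminescence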
Paired box protein Pax-8, sequence (Q06710 whole entry): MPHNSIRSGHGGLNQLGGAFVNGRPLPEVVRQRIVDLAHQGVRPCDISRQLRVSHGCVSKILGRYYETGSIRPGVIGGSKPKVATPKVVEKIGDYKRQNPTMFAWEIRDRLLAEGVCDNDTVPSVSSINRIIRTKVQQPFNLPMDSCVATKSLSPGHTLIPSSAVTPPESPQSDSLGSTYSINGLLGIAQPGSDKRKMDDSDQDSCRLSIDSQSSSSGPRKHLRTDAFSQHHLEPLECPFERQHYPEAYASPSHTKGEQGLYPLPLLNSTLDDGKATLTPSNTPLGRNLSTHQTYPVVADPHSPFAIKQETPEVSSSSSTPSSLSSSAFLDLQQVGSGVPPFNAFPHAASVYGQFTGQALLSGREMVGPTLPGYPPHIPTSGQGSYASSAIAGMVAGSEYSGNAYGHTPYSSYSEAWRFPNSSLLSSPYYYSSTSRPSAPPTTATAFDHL

[20] = IGROV1 cell killing – plate reader, dry powder samples, PAX8 inhibitor project, dose response (AID 743043); assay type: functional, cell-based; details: IGROV-1
NS3 = NS3 (Hepatitis C virus, UniProt A3EZJ3); assay: NS3h DNA-binding inhibition IC50 – biochemical, fluorescence polarization, ChemBridge library, dose response (AID 743264)
NS3, sequence (A3EZJ3 whole entry): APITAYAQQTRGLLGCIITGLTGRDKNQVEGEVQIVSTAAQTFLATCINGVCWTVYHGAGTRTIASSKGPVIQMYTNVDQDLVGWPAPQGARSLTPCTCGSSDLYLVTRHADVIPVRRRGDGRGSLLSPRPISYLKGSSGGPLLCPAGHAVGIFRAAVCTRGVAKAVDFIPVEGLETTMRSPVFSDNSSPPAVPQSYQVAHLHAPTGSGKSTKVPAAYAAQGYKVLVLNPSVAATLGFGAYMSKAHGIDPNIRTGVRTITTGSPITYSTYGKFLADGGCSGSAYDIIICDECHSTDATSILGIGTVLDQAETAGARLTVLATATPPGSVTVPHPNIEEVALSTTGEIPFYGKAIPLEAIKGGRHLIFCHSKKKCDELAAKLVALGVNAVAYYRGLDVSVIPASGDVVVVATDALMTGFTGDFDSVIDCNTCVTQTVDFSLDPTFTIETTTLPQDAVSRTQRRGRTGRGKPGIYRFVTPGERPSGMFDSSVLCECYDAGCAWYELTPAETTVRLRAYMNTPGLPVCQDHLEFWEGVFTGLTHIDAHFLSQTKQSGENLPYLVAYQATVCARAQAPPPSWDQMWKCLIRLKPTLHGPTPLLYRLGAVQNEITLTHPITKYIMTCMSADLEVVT

[21] = CTGF mRNA reduction in DLD1 cells – cell-based, DLD1 colon cancer, RT-qPCR, cherry-pick, dose response (AID 1053122); assay type: functional; details: Cancer cell lines
[22] = Dd2 parasite growth inhibition in erythrocytes – SYBR Green, dry powder samples, set 9, dose response (AID 1159568); assay type: functional, cell-based
[23] = target: Disintegrin and metalloproteinase domain-containing protein 17 (Homo sapiens, UniProt P78536); assay: exosite inhibitors of ADAM17, dose response, biochemical (AID 743260)
Disintegrin and metalloproteinase domain-containing protein 17, sequence (P78536 whole entry, the tested form may be a part): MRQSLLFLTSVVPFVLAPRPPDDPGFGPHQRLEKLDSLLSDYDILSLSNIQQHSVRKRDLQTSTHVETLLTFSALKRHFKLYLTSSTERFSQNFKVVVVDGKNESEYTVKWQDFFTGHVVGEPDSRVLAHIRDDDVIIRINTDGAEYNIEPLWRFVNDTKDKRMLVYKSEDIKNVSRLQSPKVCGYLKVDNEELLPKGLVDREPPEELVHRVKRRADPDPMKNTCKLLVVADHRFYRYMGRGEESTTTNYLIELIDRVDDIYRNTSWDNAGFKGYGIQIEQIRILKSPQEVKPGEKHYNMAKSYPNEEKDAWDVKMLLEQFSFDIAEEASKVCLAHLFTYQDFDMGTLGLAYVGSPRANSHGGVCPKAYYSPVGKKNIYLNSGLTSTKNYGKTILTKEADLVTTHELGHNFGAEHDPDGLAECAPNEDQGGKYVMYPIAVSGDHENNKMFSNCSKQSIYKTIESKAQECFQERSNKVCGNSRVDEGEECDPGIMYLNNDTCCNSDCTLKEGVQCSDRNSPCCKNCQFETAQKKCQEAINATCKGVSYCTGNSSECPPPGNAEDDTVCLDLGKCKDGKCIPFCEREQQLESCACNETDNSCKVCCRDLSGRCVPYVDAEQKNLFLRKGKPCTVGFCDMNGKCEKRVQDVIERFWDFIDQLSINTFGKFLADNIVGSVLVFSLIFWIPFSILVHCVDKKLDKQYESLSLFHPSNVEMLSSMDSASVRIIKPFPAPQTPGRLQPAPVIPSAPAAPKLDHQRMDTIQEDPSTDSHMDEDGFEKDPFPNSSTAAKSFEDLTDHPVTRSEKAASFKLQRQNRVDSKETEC

[24] = target: T6, Polyadenylate-binding protein 1 (Homo sapiens, UniProt P11940); assay: MLLE binding blockers, Cy5 peptide tracer – biochemical, fluorescence polarization, Cy5-PAM2 peptide, secondary, miRNA deadenylation inhibitor project, dose response (AID 602260); assay type: functional; details: read-out: IC50_Mean
T6 sequence (P11940 whole entry): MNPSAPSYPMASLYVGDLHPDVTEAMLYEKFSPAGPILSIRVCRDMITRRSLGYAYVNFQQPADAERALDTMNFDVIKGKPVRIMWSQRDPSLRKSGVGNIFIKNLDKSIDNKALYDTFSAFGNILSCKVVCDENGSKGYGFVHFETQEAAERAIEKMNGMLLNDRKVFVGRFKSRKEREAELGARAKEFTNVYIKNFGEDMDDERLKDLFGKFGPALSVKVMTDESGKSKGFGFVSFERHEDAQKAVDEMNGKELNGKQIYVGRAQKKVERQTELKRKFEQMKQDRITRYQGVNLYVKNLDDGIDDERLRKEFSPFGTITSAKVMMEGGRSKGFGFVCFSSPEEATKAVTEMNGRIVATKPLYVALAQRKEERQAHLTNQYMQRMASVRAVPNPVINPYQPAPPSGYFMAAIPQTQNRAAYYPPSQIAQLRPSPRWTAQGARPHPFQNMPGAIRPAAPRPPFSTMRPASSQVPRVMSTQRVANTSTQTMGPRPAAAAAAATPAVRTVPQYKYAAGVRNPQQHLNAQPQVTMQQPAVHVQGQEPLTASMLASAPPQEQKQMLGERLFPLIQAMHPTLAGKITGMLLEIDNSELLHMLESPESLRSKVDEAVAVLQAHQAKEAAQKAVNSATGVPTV

Genome polyprotein = Genome polyprotein (dengue virus type 2, UniProt P29990); assay: flavivirus cap methylation enzyme inhibition – biochemical, confirmation dose response, primary screen (AID 588689); assay type: functional
Genome polyprotein, sequence (P29990 2492-3391 limits assumed): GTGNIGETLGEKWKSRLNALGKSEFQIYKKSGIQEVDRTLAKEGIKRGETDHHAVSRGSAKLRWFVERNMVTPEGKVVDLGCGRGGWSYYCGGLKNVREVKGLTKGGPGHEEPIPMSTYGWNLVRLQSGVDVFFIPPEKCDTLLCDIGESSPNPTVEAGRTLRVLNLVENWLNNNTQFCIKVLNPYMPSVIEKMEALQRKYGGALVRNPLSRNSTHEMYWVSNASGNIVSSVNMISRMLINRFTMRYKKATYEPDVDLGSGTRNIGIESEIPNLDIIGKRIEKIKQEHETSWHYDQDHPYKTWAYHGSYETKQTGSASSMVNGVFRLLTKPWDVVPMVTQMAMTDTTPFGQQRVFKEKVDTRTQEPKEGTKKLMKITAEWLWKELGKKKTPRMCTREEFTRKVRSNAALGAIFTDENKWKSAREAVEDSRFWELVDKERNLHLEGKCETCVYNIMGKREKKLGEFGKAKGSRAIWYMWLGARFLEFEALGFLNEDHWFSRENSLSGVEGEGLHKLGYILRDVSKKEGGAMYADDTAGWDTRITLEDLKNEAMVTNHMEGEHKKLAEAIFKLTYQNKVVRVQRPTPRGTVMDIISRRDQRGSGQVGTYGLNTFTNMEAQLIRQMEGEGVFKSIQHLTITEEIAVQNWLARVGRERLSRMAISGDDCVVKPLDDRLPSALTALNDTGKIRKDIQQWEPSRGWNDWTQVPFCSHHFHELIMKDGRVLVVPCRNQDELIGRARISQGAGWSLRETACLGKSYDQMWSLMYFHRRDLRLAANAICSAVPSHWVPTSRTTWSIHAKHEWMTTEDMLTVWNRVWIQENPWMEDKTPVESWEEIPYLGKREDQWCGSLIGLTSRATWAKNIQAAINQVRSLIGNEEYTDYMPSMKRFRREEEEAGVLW

[25] = target: T7, Carboxy-terminal domain RNA polymerase II polypeptide A small phosphatase 1 (Homo sapiens, UniProt Q9GZU7); assay: CTDSP1 inhibitors, concentration-response, biochemical, absorbance readout, ultra-high-throughput screen actives (AID 540297); assay type: functional
T7 sequence (Q9GZU7 whole entry): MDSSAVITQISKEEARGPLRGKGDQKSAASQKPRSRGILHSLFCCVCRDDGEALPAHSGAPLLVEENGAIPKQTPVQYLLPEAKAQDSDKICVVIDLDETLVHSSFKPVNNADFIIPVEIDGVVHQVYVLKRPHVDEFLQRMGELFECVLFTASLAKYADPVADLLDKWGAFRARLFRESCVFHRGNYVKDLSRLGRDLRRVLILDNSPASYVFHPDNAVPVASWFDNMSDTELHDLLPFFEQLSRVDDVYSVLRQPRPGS

[26] = target: T6, Polyadenylate-binding protein 1; assay: MLLE domain peptide-binding blockers, IC50 – biochemical, fluorescence polarization, FITC-PAM2 peptide, dose response (AID 602259); assay type: functional; details: read-out: IC50_Mean
Vero = assay: viability of Vero cells under compound – cytotoxicity control for flavivirus capping enzyme inhibitors (AID 588742); assay type: functional; details: Chlorocebus sabaeus

Cc1cc(C(=O)CN2C(=O)NC(C)(CC(C)C)C2=O)c(C)n1-c1ccc2c(c1)OCO2 (stereo not drawn)
EC50 [1]: > 53 µM (inactive) | IC50 [2]: 12.8 µM (active) | IC50 [3]: 2.36 µM (active)

CCOCCCn1c(SCc2nc3ccccc3s2)nc2ccccc2c1=O
AC50 [4]: 5.44 µM (active) | AC50 [5]: 34.6 µM (active) | EC50 [1]: > 53 µM (inactive) | AC50 [6]: 29.8 µM (active) | AC50 [7]: > 52 µM (inactive)

O=C(COc1ccc(F)cc1)Nc1ccc2c(c1)OCCO2
IC50 [8]: > 67.6 µM (inactive) | IC50 (cells): > 67.6 µM (inactive)

Cc1csc2c(=O)sc(NC(=O)c3cccs3)nc12
IC50 [9]: 36.9 µM (inactive) | IC50 [10]: 8.33 µM (active)

Cc1ccc(NC2=NC(=O)S/C2=C\c2ccco2)cc1
IC50 [9]: 23.9 µM (inactive) | IC50 [10]: > 80 µM (inactive) | IC50 [11]: 7.28 µM (active)

CCOC(=O)c1ccc(NC(=O)Nc2ccc3c(c2)OCCO3)cc1
AC50 [12]: 59.3 µM (active)

O=C(COC(=O)c1ccc(F)c(S(=O)(=O)N2CCOCC2)c1)Nc1ccc2[nH]c(=O)[nH]c2c1
IC50 [13]: 25.9 µM (active) | IC50 [14]: > 66.6 µM (inactive) | IC50 [15]: 16.1 µM (active) | IC50 [16]: 20.5 µM (inactive)

OC[C@@H]1CN(Cc2ccc(-c3ccccc3)cc2)C[C@H](n2cnc3c(Nc4ccccc4)ncnc32)O1
IC50 [17]: 7.72 µM (active)

Cc1ccc([C@H]2C(C(=O)O)=CC[C@@H](c3ccc(C)cc3)N2S(=O)(=O)c2ccc(C)cc2)cc1
EC50 [1]: 50.2 µM (active) | IC50 [2]: 34.5 µM (active) | IC50 [3]: > 20 µM (inactive)

Clc1cccc(-c2nc3ccc(Br)cn3c2Cc2ccccc2)c1
IC50 (Protein skinhead-1): > 100 µM (inactive) | IC50 [8]: > 67.5 µM (inactive) | IC50 (cells): > 67.5 µM (inactive)

C[C@@H]1CCCCO[C@H](CN(C)S(=O)(=O)c2ccccc2)[C@H](C)CN([C@@H](C)CO)C(=O)c2cc(NS(=O)(=O)c3ccc(Cl)cc3)ccc2O1
AC50 [18]: 46.7 µM (active) | AC50 [19]: > 70 µM (inactive) | AC50 (Paired box protein Pax-8): 6.18 µM (active)

O=C(C[C@@H]1CC[C@@H]2[C@H](COC[C@H](O)CN2Cc2ccc3c(c2)OCO3)O1)Nc1ccc(-c2ccccc2)cc1
AC50 [20]: 41.8 µM (active) | AC50 (Paired box protein Pax-8): 9.11 µM (active)

CC(=O)N(C)C1=C(Cl)C(=O)c2ccccc2C1=O
IC50 (NS3): 20.4 µM (inactive)

O=C(Nc1ccc(Cl)cc1)c1ccc2c(c1)OCCO2
IC50 (NS3): 76.9 µM (active)

C[C@H]1CN([C@@H](C)CO)C(=O)c2cc(C#Cc3ccccc3)cnc2O[C@H]1CN(C)C(=O)c1ccccc1
AC50 [21]: 17.8 µM (active) | AC50 [22]: 1.99 µM (active)

C/C(=N\N=C(/N)SC1CC(=O)N(c2ccccc2)C1=O)c1cccs1 (stereo not drawn)
IC50 [23]: > 69.5 µM (inactive)

O=C(O)c1ccc2c(c1)C(=O)/C(=C/c1ccccc1)C2=O
IC50 [24]: > 66 µM (inactive) | IC50 (Genome polyprotein): 12.2 µM (active) | AC50 [12]: 37.7 µM (active) | IC50 [25]: 3.5 µM (active) | IC50 [26]: > 66 µM (inactive) | CC50 (Vero): > 40 µM (active)
